Read-outs that look alike come from different tables or passages of the source.
Target: T1, human ERα (Homo sapiens, UniProt P03372)
T1 sequence (P03372 1-595): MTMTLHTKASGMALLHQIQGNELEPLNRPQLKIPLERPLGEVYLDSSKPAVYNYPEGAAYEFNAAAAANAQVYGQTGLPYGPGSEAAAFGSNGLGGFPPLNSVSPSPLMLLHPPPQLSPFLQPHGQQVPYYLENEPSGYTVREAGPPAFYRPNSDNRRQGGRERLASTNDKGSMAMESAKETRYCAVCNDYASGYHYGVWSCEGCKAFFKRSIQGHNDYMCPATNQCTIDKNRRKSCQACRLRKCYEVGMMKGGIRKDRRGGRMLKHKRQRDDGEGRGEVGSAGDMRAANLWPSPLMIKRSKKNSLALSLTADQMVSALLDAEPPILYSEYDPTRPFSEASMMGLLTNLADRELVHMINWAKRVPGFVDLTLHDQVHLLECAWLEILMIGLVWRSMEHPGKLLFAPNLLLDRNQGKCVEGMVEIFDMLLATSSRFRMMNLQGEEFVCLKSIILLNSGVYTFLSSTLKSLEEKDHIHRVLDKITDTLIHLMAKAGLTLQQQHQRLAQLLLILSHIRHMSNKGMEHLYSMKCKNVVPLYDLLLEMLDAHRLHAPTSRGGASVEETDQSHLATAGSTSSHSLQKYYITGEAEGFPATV
Test: NF-κB luciferase reporter (ER/NF-KB-luc) in Ad5-wt-hERα infected HAECT-1 cells
Settings: for IC50: ER/NF-KB-luc IC50, Ad5-wt-ER infected HAECT-1 cells, IL-1β

[1] = HAECT1, read-out: ER/NF-KB-luc % E2, efficacy relative to the maximal inhibition observed with E2

| IC50 [µM] | Emax [1] [%] | SMILES | Emax (HAECT1, read-out: ER/NF-KB-luc % E2) [%] |
| --- | --- | --- | --- |
| 0.05 | 73 | Oc1ccc(-c2nn(-c3ccccc3F)c3cc(O)ccc23)c(O)c1 [Example 22, 4-[1-(2-fluorophenyl)-6-hydroxy-1H-indazol-3-yl]benzene-1,3-diol] |  |
| 0.419 | 74 | Oc1ccc(-c2nn(C3CCCC3)c3c(F)cccc23)c(O)c1 [Example 88, 4-(1-cyclopentyl-7-fluoro-1H-indazole-3-yl)benzene-1,3-diol] |  |
| 0.098 | 42 | Cc1cc(O)ccc1-c1nn(C2CCCC2)c2c(-c3ccc(-c4ccccc4)cc3)cccc12 [Example 261, 4-[7-(1,1′-biphenyl-4-yl)-1-cyclopentyl-1H-indazol-3-yl]-3-methyl-phenol] |  |
| 0.214 | 78 | CCCn1nc(-c2ccc(O)cc2)c2cccc(-c3ccccc3)c21 [Example 111, 4-(7-phenyl-1-propyl-1H-indazol-3-yl)phenol] |  |
| 0.367 | 82 | CC(C)n1nc(-c2ccc(O)cc2)c2cccc(-c3ccc(CO)cc3)c21 [Example 230, 4-{7-[4-(hydroxymethyl)phenyl]-1-isopropyl-1H-indazol-3-yl}-phenol] |  |
|  | 84 | OCCn1nc(-c2ccc(O)cc2)c2cccc(C(F)(F)F)c21 [Example 162, 4-[1-(2-hydroxyethyl)-7-(trifluoromethyl)-1H-indazol-3-yl]phenol] |  |
| 0.036 | 75 | Cc1cc(O)ccc1-c1nn(C2CCCC2)c2c(Cl)cccc12 [Example 84, 4-(7-chloro-1-cyclopentyl-1H-indazole-3-yl)-3-methylphenol] |  |
|  | 82 | Cc1cc(O)ccc1-c1nn(C(C)C)c2c(C(F)(F)F)cccc12 [Example 83, 4-[1-isopropyl-7-(trifluoromethyl)-1H-indazole-3-yl]-3-methylphenol] |  |
| 0.034 | 72 | CC(C)n1nc(-c2ccc(O)cc2)c2cccc(-c3ccccc3Cl)c21 [Example 234, 4-[7-(2-chlorophenyl)-1-isopropyl-1H-indazol-3-yl]phenol] |  |
| 1.06 | 81 | Oc1ccc(-c2nn(Cc3ccccc3)c3c(F)cccc23)c(O)c1 [Example 151, 4-(1-benzyl-7-fluoro-1H-indazol-3-yl)benzene-1,3-diol] |  |
| 0.356 | 101 | Oc1ccc(-c2nn(-c3cccc(C(F)(F)F)c3)c3cc(O)ccc23)c(O)c1 [Example 26, 4-{6-hydroxy-1-[3-(trifluoromethyl)phenyl]-1H-indazol-3-yl}benzene-1,3-diol] |  |
| 0.088 | 78 | Cc1cc(O)ccc1-c1nn(CC(C)C)c2c(F)cccc12 [Example 96, 4-(7-fluoro-1-isobutyl-1H-indazole-3-yl)-3-methylphenol] |  |
| 0.505 | 61 | Oc1ccc(-c2nn(-c3ccsc3)c3c(Cl)cccc23)cc1 [Example 101, 4-(7-chloro-1-thien-3-yl-1H-indazole-3-yl)phenol] |  |
| 0.087 | 81 | CC(C)n1nc(-c2ccc(O)cc2)c2cccc(-c3ccc(-c4ccccc4)cc3)c21 [Example 233, 4-[7-(1,1′-biphenyl-4-yl)-1-isopropyl-1H-indazol-3-yl]phenol] |  |
| 0.328 | 71 | CCCn1nc(-c2ccc(OC(=O)CC)cc2)c2cccc(Cl)c21 [Example 123, 4-(7-chloro-1-propyl-1H-indazol-3-yl)phenyl propionate] |  |
| 0.016 | 70 | Cc1ccccc1-c1cccc2c(-c3ccc(O)cc3)nn(C3CCCC3)c12 [Example 245, 4-[1-cyclopentyl-7-(2-methylphenyl)-1H-indazol-3-yl]phenol] |  |
| 0.014 | 76 | Oc1ccc(-c2nn(C3CCC3)c3c(C(F)(F)F)cccc23)c(O)c1 [Example 70, 4-[1-cyclobutyl-7-(trifluoromethyl)-1H-indazol-3-yl]benzene-1,3-diol] |  |
| 0.48 | 79 | Oc1ccc(-c2nn(C3CCCC3)c3c(-c4ccc(C(F)(F)F)cc4)cccc23)cc1 [Example 237, 4-{1-cyclopentyl-7-[4-(trifluoromethyl)phenyl]-1H-indazol-3-yl}-phenol] |  |
| 0.481 | 73 | CCCCC/C=C/c1cccc2c(-c3ccc(O)cc3C)nn(C(C)C)c12 [Example 248, 4-{7-[(E)-hept-1-enyl]-1-isopropyl-1H-indazol-3-yl}-3-methyl-phenol] |  |
| 1.03 | 96 | CC(C)c1ccc(-n2nc(-c3ccc(O)cc3O)c3ccc(O)cc32)cc1 [Example 27, 4-[6-hydroxy-1-(4-isopropylphenyl)-1H-indazol-3-yl]benzene-1,3-diol] |  |

| IC50 [µM] | Emax [1] [%] | SMILES | Emax (HAECT1, read-out: ER/NF-KB-luc % E2) [%] |
| --- | --- | --- | --- |
| 0.143 | 75 | CCc1ccc(-c2cccc3c(-c4ccc(O)cc4)nn(C(C)C)c23)cc1 [Example 232, 4-[7-(4-ethylphenyl)-1-isopropyl-1H-indazol-3-yl]phenol] |  |
| 0.479 | 128 | Cn1nc(-c2ccc(O)cc2)c2cc(F)c(Cl)cc21 [Example 125, 4-(6-chloro-5-fluoro-1-methyl-1H-indazol-3-yl)phenol] |  |
|  | 80 | Cc1cc(O)ccc1-c1nn(C(C)C)c2c(-c3ccc(O)c(O)c3)cccc12 [Example 250, 4-[3-(4-hydroxy-2-methylphenyl)-1-isopropyl-1H-indazol-7-yl]-benzene-1,2-diol] |  |
| 0.435 | 97 | CC(C)n1nc2c(F)cccc2c1-c1ccc(O)cc1O [Example 89, 4-(7-fluoro-2-isopropyl-2H-indazole-3-yl)benzene-1,3-diol] |  |
| 0.332 | 86 | CC(C)Cn1nc(-c2ccc(O)cc2O)c2cccc(F)c21 [Example 94, 4-(7-fluoro-1-isobutyl-1H-indazole-3-yl)benzene-1,3-diol] |  |
| 0.268 | 67 | CC(=O)Oc1ccc(-c2nn(C3CCCC3)c3c(F)cccc23)cc1 [Example 114, 4-(1-cyclopentyl-7-fluoro-1H-indazol-3-yl)phenyl acetate] |  |
| 0.274 | 112 | O=[N+]([O-])c1cccc(-n2nc(-c3ccc(O)cc3O)c3ccc(O)cc32)c1 [Example 25, 4-[6-hydroxy-1-(3-nitrophenyl)-1H-indazol-3-yl]benzene-1,3-diol] |  |
| 0.235 | 46 | C=CCn1nc(-c2ccc(O)cc2O)c2cccc(Cl)c21 [Example 85, 4-(1-allyl-7-chloro-1H-indazole-3-yl)benzene-1,3-diol] |  |
| 0.032 | 60 | CCc1ccc(-c2cccc3c(-c4ccc(O)cc4)nn(C4CCCC4)c23)cc1 [Example 241, 4-[1-cyclopentyl-7-(4-ethylphenyl)-1H-indazol-3-yl]phenol] |  |
| 0.918 | 66 | CCCn1nc(-c2ccc(O)cc2)c2cccc(N3CCOCC3)c21 [Example 105, 4-(7-Morpholin-4-yl-1-propyl-1H-indazole-3-yl)phenol] |  |
| 1.88 | 158 | Cc1cc(-c2nn(C3CCCC3)c3c(F)cccc23)ccc1O [Example 63, 4-(1-cyclopentyl-7-fluoro-1H-indazol-3-yl)-2-methylphenol] |  |
| 0.128 | 60 | CCCn1nc(-c2ccc(O)cc2C)c2cccc(F)c21 [Example 93, 4-(7-fluoro-1-propyl-1H-indazole-3-yl)-3-methylphenol] |  |
|  | 79 | CCCn1nc(-c2ccc(O)cc2)c2cccc(Cl)c21 [Example 43, 4-(7-chloro-1-propyl-1H-indazol-3-yl)phenol] |  |
| 0.011 | 74 | Oc1ccc(-c2nn(C3CCCC3)c3c(-c4cccs4)cccc23)cc1 [Example 238, 4-(1-cyclopentyl-7-thien-2-yl-1H-indazol-3-yl)phenol] |  |
| 0.25 | 81 | CCCn1nc(-c2ccc(O)cc2)c2cccc(-c3ccc(F)cc3)c21 [Example 104, 4-[7-(4-Fluorophenyl)-1-propyl-1H-indazole-3-yl]phenol] |  |
| 0.667 | 48 | CC(C)(C)C(=O)Oc1ccc(-c2nn(C3CCCC3)c3c(F)cccc23)cc1 [Example 112, 4-(1-cyclopentyl-7-fluoro-1H-indazol-3-yl)phenyl pivalate] |  |
| 0.075 | 83 | CSc1ccc(-c2cccc3c(-c4ccc(O)cc4)nn(C(C)C)c23)cc1 [Example 228, 4-{1-isopropyl-7-[4-(methylthio)phenyl]-1H-indazol-3-yl}phenol] |  |
| 0.191 | 68 | C=CCn1nc(-c2ccc(O)cc2C)c2cccc(Cl)c21 [Example 82, 4-(1-allyl-7-chloro-1H-indazol-3-yl)-3-methylphenol] |  |
| 0.35 | 78 | CCCn1nc(-c2ccc(OC(=O)CC(C)(C)C)cc2)c2cccc(Cl)c21 [Example 122, 4-(7-chloro-1-propyl-1H-indazol-3-yl)phenyl 3,3-dimethylbutanoate] |  |

| SMILES | IC50 [µM] | Emax [1] [%] | Emax (HAECT1, read-out: ER/NF-KB-luc % E2) [%] |
| --- | --- | --- | --- |
| CCNC(=O)Oc1ccc(-c2nn(C3CCCC3)c3c(F)cccc23)cc1 [Example 118, 4-(1-cyclopentyl-7-fluoro-1H-indazol-3-yl)phenyl ethylcarbamate] | 0.418 |  | 66 |

— patent US7241791B2, “Substituted 4-(indazol-3-yl)phenols” (Wyeth, priority 2002, dated 2007)
